Results reported in patent publication US20240299314A1 (priority 2023, published 2024).

Assay: PTX release by dialysis bag diffusion technique (HPLC)
Type: physicochemical
Conditions: 1:9 DMSO:PBS solution
Experimental: where mo (mg) is the initial amount of PTX used; mr (mg) is the residual amount of PTX in the loading solution; mNPs (g) is the […] used in the loading experiment. A dialysis bag diffusion technique was used for examining drug release behaviors. Briefly, PTX@NPs were dispersed in 1 mL of release solution (DMSO: PBS 1:9 v/v) and transferred to a dialysis bag (molecular weight cut off=14 kDa) and shaken in 5 mL of release solution at 37° C. At the predetermined time intervals, 200 μL of the solution was withdrawn and the same amount of fresh solution was added into the system. The released PTX content from PTX@NPs was determined by HPLC analysis. HPLC analyses were recorded on Agilent Technologies 1200 Series with ZORBAX SB-C18 column (Agilent, 5 μm, 4.6×250 mm). The mobile phase was water:acetonitrile (50:50 v/v). The separation was carried out at 30° C. The detection wavelength was 227 nm and a flow rate of 1.0 mL·min^−1 was employed. A sample volume of 20 μL was injected. Free PTX was used as a control to compare with PTX@NPs.

PTX released at the early stage of the release (37° C., dialysis bag): ~15%
release behavior (after the early stage): short-term release
SMILES: CC(=O)O[C@H]1C(=O)[C@@]2(C)[C@H]([C@H](OC(=O)c3ccccc3)[C@]3(O)C[C@H](OC(=O)[C@H](O)[C@@H](NC(=O)c4ccccc4)c4ccccc4)C(C)=C1C3(C)C)[C@]1(OC(C)=O)CO[C@@H]1C[C@@H]2O [free PTX, paclitaxel]
